Measurements taken from publication PMC6925493, “Casticin inhibits nasopharyngeal carcinoma growth by targeting phosphoinositide 3-kinase” (Cancer Cell International, 2019).

Tests used:
S18 cells [1] = assay: Colony formation assay; format: cell-based
Method: S18 and C666-1 cells were incubated in 6-well plates with either 0, 1, 2, and 4 µM casticin for 12 h with 1 µM casticin for 0, 6, 12, and 24 h. There after, 500 cells were seeded in each well of a 6-well plate and cultured without casticin for 8–10 days. Subsequently, the cells were fixed with methanol and stained with haematoxylin. After washing and drying, colonies with more than 50 cells were counted under a microscope (Leica, Wetzlar, Germany).

BCL-2, BAX, p21 = assay: Western blotting, cell cycle and apoptosis related proteins; format: cell-based
Source text: (§1) We used standard approaches and methods for Western blotting (WB) analyses. In brief, nasopharyngeal carcinoma cells were lysed on ice in Pierce RIPA buffer (Thermo Scientific) containing a Halt protease inhibitor cocktail (Sigma-Aldrich) and phosphatase inhibitors (Keygen Biotech). We measured protein concentration using a Beyotime protein assay protocol following the manufacturer’s instructions. Proteins were separated by using sodium dodecyl sulfate polyacrylamide gel electrophoresis and were then transferred to polyvinylidene difluoride membranes (0.45 µm; Millipore). […] The total S6, AKT, and mTOR antibodies were used on the same blots as the respective phosphorylated proteins after stripping (stripping buffer, CWBIO, China). All primary antibodies were diluted in Tris-buffered saline containing Tween 20 and 5% bovine serum albumin (BSA), and a peroxidase conjugate (Bioworld) was used as the secondary antibody. Anti-β-actin (20536-I, Proteintech) was used as a loading control. Immuno-reactive bands were visualized using an enhanced chemo-luminescence kit (Thermo Fisher Scientific), and images were captured using a ChemiDoc™ XRS molecular imager (Bio-Rad). Densitometry of band intensity was performed using ImageJ software.

NPC cell lines = assay: CCK-8 cell viability assay, NPC cell lines; format: cell-based
Method: (§2) The effects of casticin on the growth of the 12 cell lines were determined using the Cell Counting Kit-8 (CCK-8) assay (Dojindo, Japan). Briefly, cells were plated in 96-well plates at 4 × 10^3 cells/well in 100 μL and were treated with a gradient of casticin concentrations (0, 1, 2, 4, 8 µM). After incubation for 24, 48, or 72 h, 10 μL of the CCK-8 reagent was added into each well, and the plate was incubated for an additional 1 or 2 h. Next, a microplate reader (Bio-Rad, model 550) was used to detect absorbance at 490 nm in each well. We repeated the experiments three times. Cell viability was calculated using the following formula: […].

C666-1 cells [2] = assay: Cell cycle analysis by flow cytometry, C666-1; format: cell-based; conditions: 8 µM casticin for 24 h
Method: (§3) S18 and C666-1 cells were treated with 0, 2, 4, and 8 µM casticin for 24 h. The cells were then collected, washed with phosphate-buffered saline (PBS), and fixed with 75% ethanol overnight. Subsequently, the cells were centrifuged (1500 rpm, 5 min) and incubated with 10 mg/mL RNase and 1 mg/mL propidium iodide (PI) at 37 °C for 30 min in the dark. Finally, we analysed cell cycle distribution by using flow cytometry (FACSCalibur; BD Biosciences, Bedford, MA, USA).

[3] = biological target: T1, PIK3CA E542K/PIK3R1 (p110 alpha/p85 alpha) (Homo sapiens, UniProt P42336, E542K); assay: SelectScreen biochemical kinase activity assay
T1 construct: purchased Invitrogen (SelectScreen service)
Method: (§4) Selectivity profiling of casticin against a selected panel of 468 kinases distributed throughout the kinome was performed by DiscoverRx (http://www.discoverx.com/home) using the KINOMEscan screening platform at a test concentration of 10 μM. Since KINOMEscan is a binding assay and may not reflect the inhibitory activity of a compound, the binding constant (Kd) of casticin was calculated from a standard dose–response curve using the Hill equation: Response = Background + (Signal − Background)/[1 + (Kd^Hill Slope/Dose^Hill Slope)]. We then tested casticin in the SelectScreen assay (Invitrogen, USA) to calculate the IC50 of casticin that directly targeted the active site of ATP in PI3K kinase.

[4] = biological target: T2, PIK3CA ( p110 alpha/p85 alpha ) (Homo sapiens, UniProt P42336); assay: SelectScreen biochemical kinase activity assay
T2 construct: purchased Invitrogen (SelectScreen service)
Method: as §4

[5] = biological target: T3, PIK3CA/PIK3R3 (p110a/p55 gamma) (Homo sapiens, UniProt P42336); assay: SelectScreen biochemical kinase activity assay
T3 construct: purchased Invitrogen (SelectScreen service)
Method: as §4

[6] = biological target: T4, PIK3CA E545K/PIK3R1 (p110 alpha E545K/p85 alpha) (Homo sapiens, UniProt P42336, E545K); assay: SelectScreen biochemical kinase activity assay
T4 construct: purchased Invitrogen (SelectScreen service)
Method: as §4

[7] = test system: PI3K family, including wild-type and mutant kinases; assay: KINOMEscan binding to PI3K family; parameters: species or system human; conditions: 10 μM
Method: as §4

S18 cells [8] = assay: Annexin V/PI staining assay; format: cell-based; conditions: 48 h
Method: For the apoptosis test, S18 and C666-1 cells were treated with casticin at concentrations of 0, 1, 2, and 4 µM and of 0, 2, 4, and 8 µM for 48 h. Next, cells were collected and washed once with PBS. After centrifugation (1500 rpm, 5 min), cells were resuspended in 1× annexin V (AV) binding buffer and incubated with 5 µL of AV and PI at 37 °C for 30 min. Cell apoptosis was evaluated by using flow cytometry (FACSCalibur).

S18 cells [9] = assay: Cell cycle analysis by flow cytometry, S18; format: cell-based; conditions: 8 µM casticin for 24 h
Method: as §3

C666-1 cells [10] = assay: C666-1 xenograft mouse model; format: in vivo, nude mice; conditions: 40 mg/kg daily i.p.
Method: (§5) Generation and characterization of the xenograft mouse model were conducted in accordance with the guidelines of the Ministry of Science and Technology of China and were approved by the Animal Ethics Committee of Southern Medical University. All efforts were made to minimize animal suffering during the experiments. Five-week-old nude mice were obtained from the Guangdong Experimental Animal Ccenter. To assess the tumour growth, 5 × 10^6 S18 cells and 1 × 10^7 C666-1 cells were injected subcutaneously into the left or right side of the back of each mouse (three mice per group). When tumours reached approximately 100 mm^3, the mice were randomized to the control and casticin treatment groups. Casticin was diluted in 10% DMSO in normal saline (NS) and injected intraperitoneally at 40 mg/kg daily, while the control group received only NS vehicle. Tumour sizes were measured with a caliper and recorded every 3 days. Tumour volume was calculated as follows: tumour volume = (length × width^2) × 0.5. Body weight was recorded every 2–3 days during the treatment, and the tumour weight was measured at the end of the experiment.

S18 and C666-1 cells = assay: Wound-healing assay; format: cell-based; conditions: vs cells not treated
Method: We seeded S18 and C666-1 cells in 6-well plates at 80% to 90% confluence. After a 24-h incubation period, cells were wounded by using a 0.2-mL pipette tip to scratch the subconfluent cell monolayer. Then, we removed the detached cells by washing with PBS just before casticin 16 µM was added to each well of the plate. Cells were maintained in serum-free medium and allowed to migrate for 24 h. An inverted microscope was used to capture cell migration images after 24 h. The speed of migration was determined by dividing the length of the gap and the wound areas in the resultant images.

Nanog, sox2, and Oct4 = assay: Western blotting, stem cell markers; format: cell-based; conditions: C666-1; 0, 4, 8, 16 µM; 24 h; dose-dependent
Source text: as §1

panel of 468 kinases = assay: KINOMEscan selectivity profiling; format: binding, human; conditions: 10 μM
Method: as §4

[11] = test system: PI3K/AKT/mTOR signalling pathway; assay: Western blotting, PI3K/AKT/mTOR signalling in S18 and C666-1; format: cell-based
Source text: as §1

[12] = test system: normal nasopharyngeal mucosal epithelial cell line NP69; assay: CCK-8 cell viability assay, NP69; format: cell-based; conditions: NP69 cells
Method: as §2

S18 cells [13] = assay: Transwell migration assay; format: cell-based; conditions: concentration-dependent
S18 cells [14] = assay: S18 xenograft mouse model; format: in vivo, nude mice
Method: as §5

[15] = test system: S18, CNE2, C666-1 tumour spheres; assay: 3D tumour sphere formation assay; format: cell-based; conditions: 20 µM casticin for 72 h; vs untreated spheres
Method: S18, CNE2, and C666-1 cells (2 × 10^4 each) were cellected, counted and seeded into a cell culture flask with a novel 3D tumour sphere culture system. The 3D tumour sphere culture system with NPC cells was cultured at 37 °C in a humid atmosphere with 5% CO2, the diameters of tumour spheroids were measured when the tumour sphere diameter was ≥ […] [15] and then incubated with 20 µM casticin for 72 h, the original medium was discarded, the cells were cultured for approximately 1 week, and the tumour spheres that were ≥ 100 µm in diameter were counted under a bright field microscope.

p110α = test system: p110α; parameters: method as in PMID 23903756; conditions: 1 μM; cited from earlier work
[16] = test system: phosphorylation of S6, AKT and mTOR; assay: Western blotting, PI3K signalling after BYL719 in sensitive and resistant cell lines; format: cell-based; conditions: sensitive cells (HONE1, CNE1) compared to resistant cells (S18, C666-1, HONE-EBV+)
Source text: as §1, with “All primary antibodies were diluted in Tris-buffered saline containing Tween 20 and 5% bovine serum albumin (BSA), and a peroxidase conjugate (Bioworld) was used as the secondary antibody. Anti-β-actin (20536-I, Proteintech) was used as a loading control.” left out, “Densitometry of band intensity was performed using ImageJ software.” left out
To identify BYL719-insensitive NPC cell lines, the response of 12 NPC cell lines to BYL719 was screened by viability assay (Fig. 5a). […] Both sensitive cell lines increased S-phase arrest and apoptosis rates (as measured by AV staining) compared with the those in the BYL719-insensitive cell lines (Fig. 5b, c). […]

HONE1 and CNE1 = assay: Viability assay, response to BYL719; format: cell-based; conditions: 1 µM BYL719, 72 h
Method: as §2
To identify BYL719-insensitive NPC cell lines, the response of 12 NPC cell lines to BYL719 was screened by viability assay (Fig. 5a). […] Only two NPC cell lines, HONE1 and CNE1, were sensitive to 1 µM BYL719 after 72 h (Fig. 5a). Both sensitive cell lines increased S-phase arrest and apoptosis rates (as measured by AV staining) compared with the those in the BYL719-insensitive cell lines (Fig. 5b, c). We studied PI3K signalling in three resistant (S18, C666-1 and HONE-EBV+) (Fig. 5d) and two sensitive cell lines (HONE1 and CNE1) after treatment with a gradient of BYL719 concentrations (Fig. 5e). […]

[17] = read-out: Inhibited kinase activity(%) at 1μM of Casticin
[18] = 40 mg/kg daily i.p., vs NS group

T2 sequence (P42336 whole entry): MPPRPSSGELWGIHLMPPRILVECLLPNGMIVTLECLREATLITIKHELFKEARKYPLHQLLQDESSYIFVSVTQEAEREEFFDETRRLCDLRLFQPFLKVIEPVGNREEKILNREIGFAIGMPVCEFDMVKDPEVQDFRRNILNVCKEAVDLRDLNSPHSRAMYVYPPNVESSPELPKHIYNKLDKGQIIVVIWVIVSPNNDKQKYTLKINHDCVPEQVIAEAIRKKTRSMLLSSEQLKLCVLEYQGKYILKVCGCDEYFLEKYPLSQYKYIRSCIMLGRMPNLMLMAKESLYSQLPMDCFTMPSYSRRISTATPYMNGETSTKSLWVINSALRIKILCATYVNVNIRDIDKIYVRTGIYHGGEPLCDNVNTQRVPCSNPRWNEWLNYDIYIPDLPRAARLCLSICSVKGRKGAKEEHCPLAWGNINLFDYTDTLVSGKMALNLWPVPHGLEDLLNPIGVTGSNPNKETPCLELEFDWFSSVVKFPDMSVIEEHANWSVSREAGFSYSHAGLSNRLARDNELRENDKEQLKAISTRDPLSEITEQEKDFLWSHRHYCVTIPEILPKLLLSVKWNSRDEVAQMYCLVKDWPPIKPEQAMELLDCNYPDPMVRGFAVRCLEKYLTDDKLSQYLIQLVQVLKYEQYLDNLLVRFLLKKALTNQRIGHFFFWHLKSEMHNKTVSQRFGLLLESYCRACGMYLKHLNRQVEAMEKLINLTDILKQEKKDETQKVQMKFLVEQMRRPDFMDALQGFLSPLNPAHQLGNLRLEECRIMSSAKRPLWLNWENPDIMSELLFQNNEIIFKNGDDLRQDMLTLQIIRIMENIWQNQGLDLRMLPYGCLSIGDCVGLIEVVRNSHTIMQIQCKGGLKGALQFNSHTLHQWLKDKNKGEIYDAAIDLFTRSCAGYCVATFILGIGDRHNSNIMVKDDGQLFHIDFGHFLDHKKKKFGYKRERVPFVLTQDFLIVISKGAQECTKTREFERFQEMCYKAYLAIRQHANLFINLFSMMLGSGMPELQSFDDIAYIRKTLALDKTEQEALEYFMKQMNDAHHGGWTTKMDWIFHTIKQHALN
T2 sequence (P27986 whole entry partner): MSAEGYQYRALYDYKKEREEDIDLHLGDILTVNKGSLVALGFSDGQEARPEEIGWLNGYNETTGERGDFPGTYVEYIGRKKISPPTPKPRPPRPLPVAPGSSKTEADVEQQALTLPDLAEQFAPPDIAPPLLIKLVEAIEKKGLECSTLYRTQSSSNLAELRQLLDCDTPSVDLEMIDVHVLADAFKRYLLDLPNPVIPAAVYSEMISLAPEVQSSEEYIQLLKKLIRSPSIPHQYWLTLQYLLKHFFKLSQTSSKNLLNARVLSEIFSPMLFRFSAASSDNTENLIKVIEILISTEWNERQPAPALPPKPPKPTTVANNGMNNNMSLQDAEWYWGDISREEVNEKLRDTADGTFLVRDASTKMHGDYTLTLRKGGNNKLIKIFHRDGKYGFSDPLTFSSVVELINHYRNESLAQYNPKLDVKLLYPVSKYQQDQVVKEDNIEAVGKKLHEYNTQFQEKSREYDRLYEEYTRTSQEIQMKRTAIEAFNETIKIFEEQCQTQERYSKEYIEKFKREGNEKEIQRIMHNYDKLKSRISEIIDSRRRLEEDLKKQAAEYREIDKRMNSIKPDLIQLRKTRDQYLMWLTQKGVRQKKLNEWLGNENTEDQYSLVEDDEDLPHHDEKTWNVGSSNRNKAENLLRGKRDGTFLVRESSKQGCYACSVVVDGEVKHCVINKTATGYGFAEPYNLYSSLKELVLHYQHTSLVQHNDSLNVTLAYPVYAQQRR
T3 sequence (P42336 whole entry): as the sequence (P42336 whole entry) above
T1 sequence (P42336 whole entry E542K): as the sequence (P42336 whole entry) above, with E542K counted along it
T1 sequence (P27986 whole entry partner): as the sequence (P27986 whole entry partner) above
T4 sequence (P42336 whole entry E545K): as the sequence (P42336 whole entry) above, with E545K counted along it
T4 sequence (P27986 whole entry partner): as the sequence (P27986 whole entry partner) above

In the case of `COc1ccc(-c2oc3cc(OC)c(OC)c(O)c3c(=O)c2OC)cc1O` [casticin, 3′,5-dihydroxy-3,4′,6,7-tetramethoxyflavone], the clonogenic ability (S18 cells [1]; 1 µM casticin, vs control group) is reported as “diminished as early as 6 h”, the clonogenic activity (S18 cells [1]; S18 cells, 0, 1, 2, 4 µM for 12 h) is reported as “significant reduction” and the p21 expression (BCL-2, BAX, p21; S18 and C666-1, 24 h) is reported as “increased”. For the same compound, the BCL-2/BAX ratio (BCL-2, BAX, p21; casticin-treated S18 and C666-1 cells) was “significantly decreased in a dose-dependent manner”, the “IC50 on viability compared with BYL719” value (NPC cell lines; 12 NPC cell lines, 24 h) was “lower than that of BYL719” and the cell viability (NPC cell lines; eleven NPC cell lines, gradient of concentrations, 24, 48, 72 h, concentration-dependent) was “decreased”. For the same compound, the “percentage of cells in the G2/M phase” value (C666-1 cells [2]) was 62.54 ± 4.91%, the IC50 [3] was 306 nM and the inhibition at 1 µM [3, 17] was 57%. The IC50 ([4]; PI3K (p110α/p85α)) was 616 nM, the inhibition at 1 µM [4, 17] was 56% and the IC50 [5] was 574 nM. For the same compound, the inhibition at 1 µM [5, 17] was 46%, the IC50 [6] was 544 nM and the inhibition at 1 µM [6, 17] was 54%. For the same compound, the percent control number [7] was “less than 1”, the “early and late apoptosis” value (S18 cells [8]; 1 μM) was “significantly increased” and the apoptotic frequency (S18 cells [8]; 4 μM) was “approximately 75%”. For the same compound, the “percentage of cells in the G2/M phase” value (S18 cells [9]) was 62.90 ± 1.97%, the “tumour growth and liver/kidney histology in C666-1 in vivo model” value (C666-1 cells [10]) was “findings similar to those with the S18 model” and the gap-closing speeds (S18 and C666-1 cells) was “significantly decreased”. For the same compound, the “expression of tumour stemness markers Nanog, sox2, Oct4” value (Nanog, sox2, and Oct4) was “reduced expression”, the “S score (1)” value (panel of 468 kinases) was 0.01 and the “binding to other kinases” value (panel of 468 kinases; KINOMEscan) was “did not demonstrate strong binding”. For the same compound, the “phosphorylation of AKT (T308, S473) and mTOR (Ser2481, Ser2448)” value ([11]; 24 h, increasing casticin concentrations, dose-dependent) was “significant reduction”, the “effect on cell growth compared to BYL719” value [12] was “less effective” and the cell viability ([12]; gradient of concentrations, 24, 48, 72 h) was “resistant”. For the same compound, the “number of migrating cells” value (S18 cells [13]) was “significantly reduced”, the “damage to the liver or kidney (haematoxylin and eosin histopathology)” value (S18 cells [14]; 40 mg/kg daily i.p.) was “without any obvious subsequent damage to the liver or kidney” and the tumour size (S18 cells [14]; 40 mg/kg daily i.p. for 12 days, 18 days after implantation) was “smaller than those in the control group”. The “tumour growth rate (tumour volume)” value (S18 cells [14]; [18]) was “lower than NS group”, the tumour weight (S18 cells [14]; [18]) was “lighter than NS group” and the “ratios of liver and kidney weight to body weight” value (S18 cells [14]; S18 model, 40 mg/kg daily i.p.) was “not statistically significant between groups”. For the same compound, the tumour sphere growth [15] was “significant reduction in tumour growth”.

In the case of `Cc1nc(NC(=O)N2CCC[C@H]2C(N)=O)sc1-c1ccnc(C(C)(C)C(F)(F)F)c1` [BYL719], the “block of p110 subunits” value (p110α) is given as “blocked p110α without affecting the other p110 subunits”, the “phosphorylation of S6, AKT and mTOR” value [16] is given as “significantly reduced” and the “sensitivity class by viability (IC50 cut-off 1 μM)” value (HONE1 and CNE1) is given as “sensitive”. For the same compound, the “phosphorylation of ATK (Ser473 and Thr308) or mTORC1” value ([11]; BYL719 1 µM alone, 12 h) was “did not reduce”.
